The text below walks through data of patent US10738041B2, “Ferroportin inhibitors” (Vifor (International) AG, priority 2015, dated 2020).

Each structure is given as a SMILES string.

As a reminder, the IC50 is the concentration that gives 50% inhibition.

One assay concerns the target T1, ferroportin (Fpn) (Mus musculus, UniProt Q9JHI9).
T1 construct: host or cells: J774 mouse macrophage cell line, Fe(III)-NTA induced
T1 sequence (Q9JHI9 1-570): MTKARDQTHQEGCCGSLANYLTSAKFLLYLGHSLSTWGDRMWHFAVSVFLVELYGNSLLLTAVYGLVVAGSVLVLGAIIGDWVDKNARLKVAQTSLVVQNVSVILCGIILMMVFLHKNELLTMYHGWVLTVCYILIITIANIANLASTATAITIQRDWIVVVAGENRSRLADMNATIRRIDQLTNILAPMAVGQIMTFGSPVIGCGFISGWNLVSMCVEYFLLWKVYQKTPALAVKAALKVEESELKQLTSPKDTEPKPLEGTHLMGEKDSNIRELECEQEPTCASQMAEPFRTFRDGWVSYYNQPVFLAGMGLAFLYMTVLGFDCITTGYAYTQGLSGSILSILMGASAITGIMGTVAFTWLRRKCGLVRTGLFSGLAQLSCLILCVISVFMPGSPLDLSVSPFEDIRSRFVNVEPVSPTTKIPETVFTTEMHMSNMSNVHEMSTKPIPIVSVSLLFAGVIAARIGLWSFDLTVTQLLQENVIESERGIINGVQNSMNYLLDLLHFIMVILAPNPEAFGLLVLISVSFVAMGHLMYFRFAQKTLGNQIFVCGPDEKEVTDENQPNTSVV
The assay can be described thus: Hepcidin Internalization Assay (J774). Type of assay: cell-based. As to conditions: IC50 of unlabeled hepcidin in the hepcidin internalization assay, J774 cells, TMR-hepcidin 25 nM. In short, it runs like this:
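Mouse J774 macrophages, loaded overnight with 200 μM Fe(III)NTA, incubated 2 h at 37 °C with test compounds and TMR-labeled hepcidin. Cell-associated TMR fluorescence, a proxy for hepcidin binding to Fpn and internalization, quantified by automated imaging with Hoechst nuclear counterstain after fixation; IC50 from log(inhibitor) vs. response fit, triplicates.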
For `CC[C@H](C)[C@@H]1NC(=O)[C@@H](NC(=O)[C@@H](NC(=O)[C@@H]2CCCN2C(=O)[C@H](Cc2ccccc2)NC(=O)[C@H](Cc2c[nH]cn2)NC(=O)[C@@H](NC(=O)[C@@H](N)CC(=O)O)[C@@H](C)O)[C@@H](C)CC)CSSC[C@@H](C(=O)N[C@@H](CCCCN)C(=O)N[C@H](C(=O)O)[C@@H](C)O)NC(=O)[C@@H]2CSSC[C@@H]3NC(=O)[C@@H]4CSSC[C@H](NC(=O)[C@H](Cc5ccccc5)NC1=O)C(=O)N[C@@H](CSSC[C@H](NC(=O)[C@H](CCCCN)NC(=O)[C@H](CO)NC(=O)[C@H](CCCNC(=N)N)NC(=O)[C@H](Cc1c[nH]cn1)NC3=O)C(=O)NCC(=O)N[C@@H](CCSC)C(=O)N2)C(=O)NCC(=O)N4` [hepcidin, reference compound], the midpoint of inhibition, the IC50, lay at 15 ± 11 nM.

The same assay, now with this note: average of multiple measurements; inhibition of TMR-hepcidin (25 nM) internalization into J774 cells; read-out: J774 IC50.
Consider `O=C(NCc1ccccn1)c1csc(CCNCc2nc3ccccc3[nH]2)n1` [Example 12], for which the IC50 came out at 80 nM. Same read-out and setting: to `O=C(NC1CCc2cccnc21)c1csc(CCNCc2nc3ccccc3[nH]2)n1` (stereo not drawn) [Example 39] belongs 70 nM; to `O=C(NCc1ncccc1Cl)c1csc(CCNCc2nc3ccccc3[nH]2)n1` [Example 82], 6 nM; to `Cc1cnccc1CNC(=O)c1csc(CCNCc2nc3ccccc3[nH]2)n1` [Example 90], 25 nM. The same measure, in the same setting: to `O=C(NCc1ncccc1F)c1csc(CCNCCc2nc3ccccc3[nH]2)n1` [Example 94] belongs 12 nM; to `O=C(NCc1ncccc1F)c1cnn(CCNCCc2nc3ccccc3[nH]2)c1` [Example 111], 35 nM. Regarding `O=C(NCc1ncc(F)cc1F)c1csc(CCNCCc2nc3ccccc3[nH]2)n1` [Example 116], the IC50 turned out to be 1000 nM. The same measure, in the same setting: to `O=C(NCc1ncccc1F)c1csc(CNCCc2nc3ccccc3[nH]2)n1` [Example 118] belongs 103 nM; to `O=C(NCc1ncccc1F)c1csc(CCNCCc2nc3cc(F)ccc3[nH]2)n1` [Example 120], 34 nM; to `O=C(NCc1cccnn1)c1csc(CCNCCc2nc3ccccc3[nH]2)n1` [Example 122], 26 nM. On the same count and under the same terms, to `O=C(NCc1ncccc1F)c1coc(CCNCc2nc3ccccc3[nH]2)n1` [Example 126] belongs 96 nM; to `O=C(NCc1ncccc1F)c1coc(CCNCCc2nc3ccccc3[nH]2)n1` [Example 127], 9 nM; to `O=C(NCc1ncccc1F)c1csc(CCCNCc2nc3ccccc3[nH]2)n1` [Example 134], 377 nM.

As to `O=C(NCc1ccccn1)c1coc(CCNCc2nc3ccccc3[nH]2)n1` [Example 137], the IC50 is 514 nM. On the same count and under the same terms, to `O=C(NCc1ncccc1Cl)c1cnn(CCNCc2nc3ccccc3[nH]2)c1` [Example 138] belongs 179 nM; to `O=C(NCc1ncccc1Cl)c1coc(CCNCc2nc3ccccc3[nH]2)n1` [Example 141], 167 nM; to `O=C(NCc1ncccc1Cl)c1cnn(CCNCCc2nc3ccccc3[nH]2)c1` [Example 144], 12 nM. On the same count and under the same terms, to `O=C(NCc1ncccc1F)c1nc(CCNCc2nc3ccccc3[nH]2)sc1Cl` [Example 151] belongs 111 nM; to `O=C(NCc1ncccc1F)c1csc(CCN(CCc2nc3ccccc3[nH]2)CCc2nc3ccccc3[nH]2)n1` [Example 152], 4 nM. On the same count and under the same terms, to `O=C(NCc1ncccc1F)c1nc(CCNCCc2nc3ccccc3[nH]2)sc1Cl` [Example 154] belongs 8.3 nM; to `O=C(NC1CCc2cccnc21)c1csc(CCNCCc2nc3ccccc3[nH]2)n1` (stereo not drawn) [Example 158], 47 nM.

Take `O=C(NCc1cccnn1)c1nc(CCNCc2nc3ccccc3[nH]2)sc1Cl` [Example 161]: the IC50 amounted to 361 nM. Same read-out and setting: to `O=C(NCc1ncccc1F)c1ncn(CCNCc2nc3ccccc3[nH]2)n1` [Example 169] belongs 750 nM; to `O=C(NCc1ncccc1F)c1ncn(CCNCCc2nc3ccccc3[nH]2)n1` [Example 181], 135 nM; to `O=C(NCc1ncccc1F)c1csc(CCNCC(F)(F)c2nc3ccccc3[nH]2)n1` [Example 196], 1130 nM. On the same count and under the same terms, to `O=C(NCc1ncccc1F)c1coc(C2CN(CCc3nc4ccccc4[nH]3)C2)n1` [Example 208] belongs 12 nM. The same measure, in the same setting: to `O=C(NCc1ncccc1F)c1cccc(CNCCc2nc3ccccc3[nH]2)c1` [Example 224] belongs 140 nM; to `O=C(NCc1ncccc1F)c1coc(CCNCCc2nc3c(Cl)cccc3[nH]2)n1` [Example 226], 49 nM; to `O=C(NCc1ncccc1F)c1coc(CCNCCc2nc3c(F)cccc3[nH]2)n1` [Example 228], 46 nM. Consider `Cc1oc(CCNCCc2nc3ccccc3[nH]2)nc1C(=O)NCc1ncccc1F` [Example 230], for which the IC50 amounted to 140 nM. On the same count and under the same terms, to `O=C(NCc1ncccc1F)c1coc(C2CN(CCc3nc4c(F)cccc4[nH]3)C2)n1` [Example 239] belongs 36 nM; to `O=C(NCc1ncccc1F)c1csc(CCNCCc2nc3c(F)cccc3[nH]2)n1` [Example 243], 32 nM; to `O=C(NCc1ncccc1F)c1coc(CCNCCc2nc3c(F)cc(F)cc3[nH]2)n1` [Example 249], 40 nM. The same measure, in the same setting: under `O=C(NCc1ncccc1F)c1coc(CCNCCc2nc3cc(F)ccc3[nH]2)n1` [Example 250] stands 14 nM; under `O=C(NCc1ncccc1F)c1cncc(C2CN(CCc3nc4ccccc4[nH]3)C2)c1` [compound 237], 81 nM.
